{"source": "patent US6465447B1", "about": "“Substance having steroid-like structure, process for the production thereof and antitumor agents containing the same” (Hisamitsu Pharmaceuticals Co., Inc., priority 1998, dated 2002)", "key": {"[1]": {"system": "HeLa cells", "assay": "Tumor cell proliferation inhibitory activity, Alarmer Blue staining, HeLa cells", "assay_type": "cell-based, human", "conditions": "conclusion from FIGS. 4-6 (Vero, HeLa, fibroblasts)", "protocol": "Here, Vero was […] derived from the kidney of a grivet, and HeLa was a tumor cell line derived from human cervix.\nThese cells were grown in FCS-MRM medium. The respective cells were trypsinized and washed with a FCS-free RPMI culture medium three times. The cell density was adjusted to 50,000 cells/ml prior to the test. Each 200 μl of cell suspension was dropped into a 96-well plain-bottom plate.\nAfter one day, the culture medium was aspirated; and 200 μl of an active component solution was dropped into test wells, and 200 μl of DMSO dropped into control wells. The plate was incubated in a 5% CO2 atmosphere at 37° C. for 3 days. Ten μl of Alarmer Blue (staining agent) was added to each well, and incubation continued for additional 3 hrs. The tumor cell proliferation inhibitory activity was determined spectrophotometrically (570 and 600 nm) according to the following equation:\nEq. Proliferation inhibitory activity=100%−[(absorbance of test well)/(absorbance of control well)×100%]"}, "[2]": {"system": "HeLa cells", "assay": "DNA cleavage examined against HeLa cells (chromatin aggregation, agarose gel electrophoresis)", "assay_type": "cell-based, human", "conditions": "conclusion from FIGS. 7-9", "protocol": "HeLa cells were prepared, adjusted to a cell density of 1×10^6 cells/ml in a φ10 cm culture dish and grown, into which 200 μl of the active fraction solution was dropped. Cells were harvested each 50 μl after 24, 48, and 72 hrs, and incubated in 400 μl of culture solution (containing Tris-EDTA, SDS and Proteinase K) in a 5% CO2 atmosphere at 37° C. overnight. NaCl was added to the cells and decomposed proteins were centrifuged; and the supernatant was precipitated in ethanol.\nThe precipitate was suspended in Tris-EDTA buffer containing RnaseA. After 2 hrs, it was loaded onto agarose gel. After staining with ethidium bromide, it was electrophoresed and visualized under UV irradiation."}}}
{"smiles": "CC(=O)OC1CC2(C)C(C(C)/C=C/C(C)C(C)C)CCC2(C)C2CC(O)C3(O)CC(O)CC(=O)C3(C)C12", "note": "(centres unmarked) [compound (II)]", "values": [{"measurement": "proliferation inhibitory activity specific to tumor cells (overall conclusion)", "setting": "[1]", "result": "remarkable proliferation inhibitory activity specific to tumor cells"}, {"measurement": "induction of apoptosis in the tumor cells", "setting": "[2]", "result": "induces apotosis"}]}
